Article PMC3202029 (Journal of ethnopharmacology, 2011)

Tests used:
Caco-2 cell monolayers = experiment: Transepithelial transfer; type: in vitro ADME, human; details: for compound found in cells: cell homogenate after 4 h, before or after deconjugation; for uptake (transport rate): 4 h
[1] = ref Konishi et al. 2005; Bérangère et al., 2004; cited from earlier work
Transepithelial transfer = type: in vitro ADME, human; details: human, Caco-2, pH 7.4

Row | Compound | basolateral recovery of paracellular marker (Caco-2 cell monolayers; 100 μM LY) [%] | Papp before deconjugation (Caco-2 cell monolayers; apical to basolateral, HBSS pH 7.4, RA 10 μM, UA 5, 10 and 20 μM, LY 100 μM) [cm/s ×10^−6] | detection of UA after apical application of P. vulgaris extracts (Caco-2 cell monolayers; apically-applied P. vulgaris extracts containing 1-10 μM RA) | compound found in cells (Caco-2 cell monolayers) | uptake (transport rate) (Caco-2 cell monolayers; highest tested concentration, 20 μM) [μM/h/cm^2] | uptake (transport rate) (Caco-2 cell monolayers; lowest tested concentration, 5 μM) [μM/h/cm^2] | partition coefficient (Log P) [1] | recovery at 4 h, 10 μM (Transepithelial transfer) [%] | basolateral detection at 0.5 and 1 h (Caco-2 cell monolayers; before deconjugation, 10 μM RA)
1 | lucifer yellow [LY, reference compound] | 0.5 ± 0.1 | 0.3 ± 0.1 |  |  |  |  |  |  | 
2 | C[C@H]1[C@H](C)CC[C@]2(C(=O)O)CC[C@]3(C)C(=CC[C@@H]4[C@@]5(C)CC[C@H](O)C(C)(C)[C@@H]5CC[C@]43C)[C@H]12 [UA, Ursolic acid] |  |  | not detected | neither RA nor UA was found in cells | 0.2 ± 0.04 | 0.03 ± 0.01 | 6.4 |  | 
3 | O=C(/C=C/c1ccc(O)c(O)c1)O[C@H](Cc1ccc(O)c(O)c1)C(=O)O [RA, Rosmarinic acid] |  |  |  | neither RA nor UA was found in cells |  |  | 0.2 | 86.7 ± 2.9 | not detected
